In patent US11274106B2, “Topoisomerase inhibitors with antibacterial and anticancer activity” (THE BOARD OF TRUSTEES OF THE UNIVERSITY OF ILLINOIS, priority 2017, dated 2022):
In brackets after ≈: the same amount, converted by molar mass. Entries after “also recorded” stand apart in the source; their conditions may differ.

What was measured:
[1] = system: MRSA; assay: Antibacterial MIC, microbroth dilution, MRSA; assay type: cell-based, S. aureus; conditions: Staphylococcus aureus, MRSA; microbroth dilution
Description: To investigate this possibility, the antibacterial effects of the DNM derivatives was assessed against strains of E. coli, S. aureus, and MRSA using the microbroth dilution method (Table 2).

[2] = target: E. coli DNA Gyrase (Escherichia coli, UniProt P0AES4+P0AES6); assay: E. coli DNA Gyrase supercoiling assay; assay type: biochemical
Chain of E. coli DNA Gyrase (P0AES4 whole entry, one chain of several): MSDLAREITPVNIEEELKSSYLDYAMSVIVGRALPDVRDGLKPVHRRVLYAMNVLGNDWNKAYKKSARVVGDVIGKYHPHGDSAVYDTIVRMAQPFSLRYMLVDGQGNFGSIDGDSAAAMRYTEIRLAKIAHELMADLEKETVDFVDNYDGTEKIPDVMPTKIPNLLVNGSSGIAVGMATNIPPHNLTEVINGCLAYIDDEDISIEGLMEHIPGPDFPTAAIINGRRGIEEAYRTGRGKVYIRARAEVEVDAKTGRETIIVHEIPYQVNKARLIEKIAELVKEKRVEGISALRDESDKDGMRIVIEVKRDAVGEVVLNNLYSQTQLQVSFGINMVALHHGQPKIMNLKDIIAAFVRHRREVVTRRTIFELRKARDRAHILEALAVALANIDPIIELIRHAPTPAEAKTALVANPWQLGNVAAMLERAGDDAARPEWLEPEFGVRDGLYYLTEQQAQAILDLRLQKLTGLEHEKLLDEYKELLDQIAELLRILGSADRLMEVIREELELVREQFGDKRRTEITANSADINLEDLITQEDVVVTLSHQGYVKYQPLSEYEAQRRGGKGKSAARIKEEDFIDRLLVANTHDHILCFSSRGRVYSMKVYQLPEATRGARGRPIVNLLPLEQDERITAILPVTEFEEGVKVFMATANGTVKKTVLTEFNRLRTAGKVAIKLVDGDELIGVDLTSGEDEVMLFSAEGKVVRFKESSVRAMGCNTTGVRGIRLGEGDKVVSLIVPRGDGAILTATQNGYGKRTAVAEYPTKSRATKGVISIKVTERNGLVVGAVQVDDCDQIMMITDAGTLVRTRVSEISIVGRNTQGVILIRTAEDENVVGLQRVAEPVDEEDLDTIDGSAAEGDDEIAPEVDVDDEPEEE
Excerpt: (§1) FIG. 8. In vitro inhibitory activity of 6DNM-NH3, Ph-6DNM-NH3 against E. coli DNA gyrase and TopoIV.
(§2) DNM and its derivatives exert their antibacterial effects through inhibition of the DNA Gyrase.

[3] = target: E. coli TopoIV (Escherichia coli, UniProt P0AFI2+P20083); assay: E. coli TopoIV decatenation assay; assay type: biochemical
Chain of E. coli TopoIV (P0AFI2 whole entry): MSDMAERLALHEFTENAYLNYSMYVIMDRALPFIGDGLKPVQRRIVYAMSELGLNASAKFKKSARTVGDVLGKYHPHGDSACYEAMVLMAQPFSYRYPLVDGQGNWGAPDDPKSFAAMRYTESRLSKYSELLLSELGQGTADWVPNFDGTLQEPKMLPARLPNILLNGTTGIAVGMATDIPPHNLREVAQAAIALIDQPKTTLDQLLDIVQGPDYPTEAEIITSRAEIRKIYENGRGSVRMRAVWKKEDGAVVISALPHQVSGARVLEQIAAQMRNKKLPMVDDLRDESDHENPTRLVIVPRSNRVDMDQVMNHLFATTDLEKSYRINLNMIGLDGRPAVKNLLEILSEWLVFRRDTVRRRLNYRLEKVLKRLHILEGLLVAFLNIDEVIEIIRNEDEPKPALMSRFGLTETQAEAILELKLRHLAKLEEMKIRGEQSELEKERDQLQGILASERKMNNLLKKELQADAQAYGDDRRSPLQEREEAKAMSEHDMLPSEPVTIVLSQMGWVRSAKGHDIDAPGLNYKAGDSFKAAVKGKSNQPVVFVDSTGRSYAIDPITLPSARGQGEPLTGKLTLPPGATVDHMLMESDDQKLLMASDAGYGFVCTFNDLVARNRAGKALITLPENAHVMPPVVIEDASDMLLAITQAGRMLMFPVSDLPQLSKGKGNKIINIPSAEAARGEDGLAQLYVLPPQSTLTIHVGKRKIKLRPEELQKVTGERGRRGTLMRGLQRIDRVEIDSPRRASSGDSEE
Chain of E. coli TopoIV (P20083 whole entry): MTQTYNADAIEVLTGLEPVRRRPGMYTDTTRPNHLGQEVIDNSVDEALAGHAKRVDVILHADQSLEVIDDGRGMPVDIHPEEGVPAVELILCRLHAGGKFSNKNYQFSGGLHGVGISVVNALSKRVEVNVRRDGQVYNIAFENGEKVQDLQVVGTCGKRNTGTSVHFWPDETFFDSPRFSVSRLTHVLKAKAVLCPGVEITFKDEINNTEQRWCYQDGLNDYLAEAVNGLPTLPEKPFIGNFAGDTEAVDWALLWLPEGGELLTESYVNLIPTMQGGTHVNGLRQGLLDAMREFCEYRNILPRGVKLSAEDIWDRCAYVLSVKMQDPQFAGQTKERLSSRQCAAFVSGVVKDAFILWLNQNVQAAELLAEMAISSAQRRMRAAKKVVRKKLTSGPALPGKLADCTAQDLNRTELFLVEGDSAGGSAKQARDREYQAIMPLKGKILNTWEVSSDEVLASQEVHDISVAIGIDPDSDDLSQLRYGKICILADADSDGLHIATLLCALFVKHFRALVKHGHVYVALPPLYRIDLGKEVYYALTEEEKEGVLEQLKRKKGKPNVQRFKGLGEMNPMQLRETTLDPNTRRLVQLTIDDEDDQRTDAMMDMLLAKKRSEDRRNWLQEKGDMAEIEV
Excerpt: as §1, §2

[4] = target: Top2α (Homo sapiens, UniProt P11388); assay: Top2α kDNA decatenation assay; assay type: biochemical; conditions: gel electrophoresis, FIG. 3a
Chain of Top2α (P11388 whole entry): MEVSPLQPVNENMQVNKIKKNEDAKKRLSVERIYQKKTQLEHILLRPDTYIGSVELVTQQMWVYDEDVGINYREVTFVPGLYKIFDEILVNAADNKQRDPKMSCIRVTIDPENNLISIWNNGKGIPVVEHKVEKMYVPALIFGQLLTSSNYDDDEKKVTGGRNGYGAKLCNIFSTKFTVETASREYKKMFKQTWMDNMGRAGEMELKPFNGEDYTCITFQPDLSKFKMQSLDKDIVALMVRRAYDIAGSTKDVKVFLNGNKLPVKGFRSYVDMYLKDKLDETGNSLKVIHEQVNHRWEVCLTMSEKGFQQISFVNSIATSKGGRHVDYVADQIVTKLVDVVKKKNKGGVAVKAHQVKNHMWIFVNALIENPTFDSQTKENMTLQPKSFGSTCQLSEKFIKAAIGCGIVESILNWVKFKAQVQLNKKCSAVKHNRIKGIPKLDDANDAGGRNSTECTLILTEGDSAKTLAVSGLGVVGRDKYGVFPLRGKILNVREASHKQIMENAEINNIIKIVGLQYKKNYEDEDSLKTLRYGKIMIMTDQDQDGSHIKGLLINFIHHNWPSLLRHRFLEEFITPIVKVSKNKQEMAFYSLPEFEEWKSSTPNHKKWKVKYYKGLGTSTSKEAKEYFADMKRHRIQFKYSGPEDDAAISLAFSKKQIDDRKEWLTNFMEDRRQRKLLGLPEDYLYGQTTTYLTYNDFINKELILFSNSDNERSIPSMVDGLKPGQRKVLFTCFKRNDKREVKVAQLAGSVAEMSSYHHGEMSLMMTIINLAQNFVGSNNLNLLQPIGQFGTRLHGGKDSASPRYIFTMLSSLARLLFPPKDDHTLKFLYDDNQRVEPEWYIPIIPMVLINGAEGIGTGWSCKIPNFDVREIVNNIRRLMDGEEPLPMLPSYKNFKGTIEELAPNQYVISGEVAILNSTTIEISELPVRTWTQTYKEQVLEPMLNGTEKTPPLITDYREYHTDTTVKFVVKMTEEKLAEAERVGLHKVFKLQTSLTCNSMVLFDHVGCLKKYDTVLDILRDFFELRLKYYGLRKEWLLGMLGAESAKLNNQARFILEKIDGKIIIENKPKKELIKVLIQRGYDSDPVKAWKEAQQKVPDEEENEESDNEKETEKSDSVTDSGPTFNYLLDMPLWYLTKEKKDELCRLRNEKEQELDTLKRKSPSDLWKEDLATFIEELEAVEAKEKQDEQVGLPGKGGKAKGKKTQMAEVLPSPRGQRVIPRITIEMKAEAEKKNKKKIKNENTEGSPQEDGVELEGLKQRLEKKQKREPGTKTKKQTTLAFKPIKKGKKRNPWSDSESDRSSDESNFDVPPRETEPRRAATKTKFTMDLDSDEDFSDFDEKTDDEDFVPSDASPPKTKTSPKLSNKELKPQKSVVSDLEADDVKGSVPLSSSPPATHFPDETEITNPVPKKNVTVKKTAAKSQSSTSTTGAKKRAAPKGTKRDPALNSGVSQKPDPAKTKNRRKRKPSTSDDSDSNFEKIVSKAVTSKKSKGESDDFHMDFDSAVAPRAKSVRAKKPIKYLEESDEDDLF
Excerpt: (§3) FIG. 3. DNM derivatives are dual Top1/Top2 inhibitors with different modes of inhibition. (a) Inhibition of decatenating ability of Top2α with increasing concentrations of ETP, 6DNM-NH3, 6DNM-Pyr, and Ph-6DNM-NH3. K, kinetoplast DNA; OC, open circular; R, relaxed. (b) Inhibition of relaxing ability of Top1 with increasing concentrations of CPT, 6DNM-NH3, 6DNM-Pyr, and Ph-6DNM-NH3. R, relaxed; S, supercoiled. (c) Detection of Top2a-DNA using the ICE Assay. Genomic DNA ([…]) of H460 cells treated with drugs (50 μM, 30 min) was applied to nitrocellulose membrane and immunoblotted for Top2a. (d) Detection of Top1-DNA adducts using ICE Assay. Same procedure as (c) using 1 μg of DNA. (e) Inhibition of ETP-induced poisoning of Top2a. H460 cells treated with indicated concentrations of inhibitor for 30 min prior to treatment with ETP (50 μM). Detection of Top2α as in (c).
FIG. 9. Mechanism of action studies: Topoisomerases form transient covalent complexes with DNA to modify DNA topology. Ph6DNM-NH3 and 6DNM-NH3 inhibit bacterial DNA gyrase and human topoisomerase II in vitro.
The ability of Ph-6DNM-NH3, 6DNM-NH3, and 6DNM-Pyr to inhibit Top2α was assessed using a decatenation assay. In this assay, Top2α is incubated with kinetoplast DNA (kDNA), a large network of catenated minicircles and maxicircles of DNA. As Top2α decatenates the kDNA, it releases supercoiled and relaxed DNA minicircles that are easily separated from the kDNA by gel electrophoresis.

[5] = target: T1, Top2cc (Homo sapiens, UniProt P11388); assay: ICE assay for Top2α-DNA complexes in H460 cells; assay type: cell-based; conditions: for Accumulation of Top2cc (ICE assay): 50 μM; for Effect on ETP-induced Top2cc: pre-treatment 30 minutes prior to ETP (50 μM)
T1 construct: endogenous in cells; host or cells: H460
T1 sequence (P11388 whole entry): as above
Excerpt: as §3
The in vivo complex of enzyme (ICE) assay can be used to distinguish poisons from catalytic inhibitors. The ICE assay consists of isolating the genomic DNA of cells treated with small molecules in a manner the preserves covalent DNA-protein complexes and applying it to nitrocellulose membranes. Because topoisomerase poisons stabilize the cleavage complexes, DNA-protein complexes can be detected by immunoblotting for specific topoisomerases, whereas catalytic inhibitors produce no such result. To determine if DNM derivatives are acting as poisons or catalytic inhibitors, H460 human lung cells were exposed to 50 μM of the Top2 poison ETP, Ph-6DNM-NH3, 6DNM-NH3, and 6DNM-Pyr and assessed for their ability to stabilize Top2cc. […] In a similar fashion, next investigated was the mode of Top1 inhibition using the ICE assay (FIG. 3b).

In the case of `Cc1cc(=O)n2c3c(c4c(cc13)c1ccccc1c(=O)n4C)OCC2CN` (stereo not drawn) [Compound 15], the MIC [1] is reported as 1 µg/mL (≈ 2.77 µM), the “Inhibition of purified E. coli DNA Gyrase” value [2] is reported as “able to inhibit” and the “Inhibition of purified E. coli TopoIV” value [3] is reported as “able to inhibit”. The “Inhibition of decatenating function of Top2α” value ([4]; listed as Ph-6DNM-NH3) was “inhibit the decatenating function of Top2α in a dose-dependent manner; also recorded: the least active derivative in this in vitro assay”, the “Accumulation of Top2cc (ICE assay)” value [5] was “only ETP treatment resulted in the accumulation of Top2cc” and the “Effect on ETP-induced Top2cc” value [5] was “dose-dependent decrease in ETP-induced Top2cc”.
In the case of `Cc1cc(=O)n(C)c2c3c4c(cc12)c(C)cc(=O)n4C(CN1CCCC1)CO3` (stereo not drawn) [Compound 20], the “Inhibition of decatenating function of Top2α” value ([4]; listed as 6DNM-Pyr) is reported as “inhibit the decatenating function of Top2α in a dose-dependent manner; also recorded: inhibiting Top2α function at lower concentrations than 6DNM-NH3”, the “Accumulation of Top2cc (ICE assay)” value [5] is reported as “only ETP treatment resulted in the accumulation of Top2cc” and the “Effect on ETP-induced Top2cc” value [5] is reported as “dose-dependent decrease in ETP-induced Top2cc”.
